Values quoted from earlier work, collected in patent US12410178B2, “Small cationic ortho-5,15-di-heteroaryl-porphyrin derivatives and their applications in photoinactivation of microorganisms” (UNIVERSIDADE DE COIMBRA, priority 2019, dated 2025).

Experiments:
[1] = system: human HeLa cells; details: phototoxicity in vitro; read-out: concentration at which 50% of human HeLa cells are killed; cited from earlier work
[2] = system: flies; details: in vivo; cited from earlier work

Row | SMILES | IC50 [1] [nM] | phototoxicity towards flies [2]
1 | CCn1cc[n+](CC)c1C1=c2ccc3[n]2[Zn@]24[n]5c(ccc5C(c5ccccc5)=C5C=CC(=[N+]52)C=3)C=C2C=CC1=[N+]24 [Formula (III), zinc(II) phenylporphinate] | 1200 | 
2 | C[n+]1ccc(-c2c3nc(c(-c4cc[n+](C)cc4)c4ccc([nH]4)c(-c4ccccc4)c4nc(c(-c5ccccc5)c5ccc2[nH]5)C=C4)C=C3)cc1 [Formula (IV), meso-(di-cis[4-N-methyl-pyridyl]cis-diphenyl-porphyrin)] |  | phototoxic towards flies
